Results: publication PMC7377376, “Drug targeting CYP2E1 for the treatment of early-stage alcoholic steatohepatitis” (PLoS ONE, 2020)

Tests used:
ethanol-fed Wistar rats [1] = assay: Liver histopathology of ethanol-fed rats; assay type: in vivo, rat; details: I-ol, I-an in their higher concentrations; UDCA 40 mg/kg b.w.; H.E. staining
Experimental: (§1) In the first two weeks rats of all groups–with the exception of group 1 –were fed with LDC diet plus maltodextrin in an appropriate amount to adapt the animals to the liquid diet. Group 2 is the second control group in which the isocaloric diet was administered for further 10 weeks until the end of the experiment. […] The test compounds I-ol, I-an and UDCA were dissolved in a 0.8% aqueous HPMC gel to obtain the appropriate concentrations: (1) I-ol with 0.4, 4 and 40 mg/kg b. w. (2) I-an with 0.4, 4 and 40 mg/kg b. w. (3) UDCA with 40 mg/kg b. w. Rats of group 2 and 3 received only HPMC as a placebo. The LDC diets were fed ad libitum and their intake per cage was controlled daily. The corresponding bottles were stored in the cages from 08:00 a. m. until 06:00 p. m. and replaced by drinking water bottles overnight until 08:00 a. m. in the next morning. Every day at the same time, the test compounds or only HPMC were administered intragastrically by oral gavage with an administration volume of 2 ml/kg b. w. After ten weeks of treatment, the rats were anesthetized with an intraperitoneal injection of a 5% pentobarbital solution and then killed by aorta scarification. Their livers were dissected and liver pieces frozen and stored in liquid nitrogen. A part of the liver was fixed for histological investigations. Blood was collected before sacrifice, centrifuged for serum preparation and finally stored in liquid nitrogen.
Liver samples were selected randomly, fixed in Bouin`s solution and embedded in paraffin wax. Histological sections were prepared and stained with haematoxylin and eosin. Other liver samples were fixed in a solution containing formaldehyde, paraformaldehyde and glutaraldehyde with a subsequent post-fixation in 1% osmium containing phosphate buffer pH 7.4 for further analysis. Liver tissue was embedded in a mixture of butyl-methyl-metacrylates. Semifine sections of 0.5–1.0 μm were stained with Asur II, methylen blue and basic fuxine.

ethanol-fed Wistar rats [2] = assay: Oxidative stress parameters in liver of ethanol-fed rats (Lieber-DeCarli diet); assay type: in vivo; design: GR activity reduction compared to disease group / increase of ethanol effect on GR activity / hydrogen peroxide amount reduced below the reference value: concentration or dose not given beside the values; details: rat liver; for reduction of ethanol effect on hydrogen peroxide: I-ol, I-an 0.4/4/40 mg/kg b.w., UDCA 40 mg/kg; for reduction of ethanol effect on hydrogen peroxide / hydrogen peroxide decrease compared to disease group / reduction of ethanol effect on reduced glutathione (GSH): oral; for reduction of ethanol effect on hydrogen peroxide / hydrogen peroxide decrease compared to disease group / reduction of ethanol effect on reduced glutathione (GSH) / SRA decrease compared to disease group: 10 weeks; for increase of ethanol effect on GR activity: as worded in Fig 3 legend; for GSH elevation compared to disease group / SRA decrease compared to disease group: average over 0.4/4/40 mg/kg b.w.; for SRA decrease compared to disease group: daily oral gavage; for reduction of ethanol effect on glutathione reductase (GR) activity: average over doses (UDCA 40 mg/kg); for GPx activity below the reference value in healthy animals: highest concentration (UDCA 40 mg/kg b.w.); for reduction of ethanol effect on glutathione peroxidase (GPx) activity: on average
Description: (§2) A total of 68 female Wistar rats (Institute of Pharmacology and Biochemistry Breeding House, Minsk, Belarus) aged 80–90 days and weighting 180–200 g at the beginning of the experiments were used in the study. Each rat group (n = 6–8) was housed in a separate cage and had free access to the liquid diet during the full study period. Prior to the study, the animals were habituated for seven days to the cage conditions and experimental handling. The rats were maintained in a controlled experimental environment (20–25°C, 40–50% humidity, 12 h light per day, room with a 12-h light/dark cycle).
(§3) Rats were divided into ten groups characterized by the diet and the test compounds (S1 Table). Group 1 is the first control group in which a normal solid standard diet was fed for 12 weeks. All other groups received the liquid Lieber-DeCarli (LDC) diet (S2 Table), which combines food and drink in a liquid manner. It was prepared by ssniff Spezialdiäten GmbH, Soest. The addition of maltodextrin to this diet should compensate the pure caloric effect of ethanol, whereby 1.77 g maltodextrin replaces 1 g ethanol. The calorie value of both the control and ethanol diets was the same: 35% calories from fat, 11% from carbohydrates, 18% from protein and 36% from ethanol.
as §1
The generation of reactive oxygen species (ROS) in rat liver was evaluated by NADPH-induced chemiluminescence with amplification by both luminol for the detection of superoxide (SRA) radical anion and lucigenin detecting hydrogen peroxide as described by Müller-Peddinhaus. In short, liver pieces were homogenized in 0.1 M sodium phosphate buffer pH 7.4. The homogenates were centrifuged at 9,000 x g at 0°C and aliquots were used for the measurement. Reduced glutathione (GSH) was determined by a modified Ellman`s method: 0.2 ml of the liver homogenates’ supernatant were added to 1.6 ml of an EDTA-/sodium […] solution. The absorbance was read at […] against blanks. GSH solution—prepared immediately before use—served as a standard. End products of the lipid peroxidation reaction are equivalent to TBARS (thiobarbituric acid-reacting substances) and their concentration was measured according to Buege et al.. The enzymatic activity of cytosolic glutathione peroxidase (GPx) and microsomal glutathione reductase (GR) were determined as described by Buko at al.. Catalase activity was evaluated by spectrophotometric measurement using hydrogen peroxide as a substrate according to Beers et al.. […]

ethanol-fed Wistar rats [3] = assay: Serum liver enzyme activities of ethanol-fed rats; assay type: in vivo, rat; details: for reduction of ethanol effect on γ-GT activity: UDCA 40 mg/kg; for reduction of ethanol effect on ALT activity: average over 0.4/4/40 mg/kg b.w.; for γ-GT activity above the reference value of healthy animals: highest concentration
Description: as §2, §3, §1
The serum marker enzyme activities, alanine aminotransferase (ALT), aspartate aminotransferase (AST), alkaline phosphatase (AP) and gamma-glutamyltransferase (γ-GT) as well as triglycerides and bilirubin were measured according to manufacturer’s instructions using standard commercial kits from Lachema (PLIVA-Lachema Diagnostika, Czech Republic). Serum concentrations of leptin, adiponectin and TNF-alpha were analyzed using commercial ELISA test kits: BioCat GmbH (Heidelberg, German) for adiponectin and TNF-alpha, BioVendor Laboratory Medicine Inc. (Brno, Czech Republic) for leptin. Insulin serum concentration was determined by radioimmunoassay using the commercially available kit RIO-insulin-PG-J125 (IBOCH, Minsk, Belarus). Glucose serum concentration was determined by the Accu-Check Active blood glucose testing system from Roche-Diagnostics GmbH (Mannheim, Germany).

[4] = design: method as in earlier work; details: compared among I-ol, I-an and I-phosphocholines; ref "ω-imidazolyl-alkyl derivatives as new preclinical drug candidates for NASH therapy"; cited from earlier work
[5] = average over 0.4/4/40 mg/kg b.w. (UDCA 40 mg/kg)
[6] = average over doses (UDCA 40 mg/kg)

CCCCCCCCCCCCn1ccnc1 [I-an, 1-Imidazolyldodecane]
liver morphology (histopathology, in words) (ethanol-fed Wistar rats [1]): almost complete restoration of the physiological liver morphology
GR activity reduction compared to disease group (ethanol-fed Wistar rats [2]): 11%
hydrogen peroxide amount reduced below the reference value (ethanol-fed Wistar rats [2]): 56%
reduction of ethanol effect on hydrogen peroxide (ethanol-fed Wistar rats [2]): completely reduced
increase of ethanol effect on GR activity (ethanol-fed Wistar rats [2]): 43%
GSH elevation compared to disease group (ethanol-fed Wistar rats [2]): 94%
reduction of ethanol effect on TBARS (ethanol-fed Wistar rats [2]; [5]): 93%
hydrogen peroxide decrease compared to disease group (ethanol-fed Wistar rats [2]; [5]): 78%
reduction of ethanol effect on reduced glutathione (GSH) (ethanol-fed Wistar rats [2]; [5]): 55%
SRA decrease compared to disease group (ethanol-fed Wistar rats [2]): 43%
GPx activity elevation compared to disease group (ethanol-fed Wistar rats [2]; average over doses): 10%
TBARS decrease compared to disease group (ethanol-fed Wistar rats [2]; average over doses): 40%
reduction of ethanol effect on glutathione reductase (GR) activity (ethanol-fed Wistar rats [2]): 43%
GSH value above the reference value of healthy animals (ethanol-fed Wistar rats [2]; highest concentration): 2%
TBARS level below the reference values of healthy animals (ethanol-fed Wistar rats [2]; highest concentration): 31%
GPx activity below the reference value in healthy animals (ethanol-fed Wistar rats [2]): 10%
reduction of ethanol effect on glutathione peroxidase (GPx) activity (ethanol-fed Wistar rats [2]): completely reduced
reduction of ethanol effect on γ-GT activity (ethanol-fed Wistar rats [3]): 60%
reduction of ethanol effect on ALT activity (ethanol-fed Wistar rats [3]): 59%
ALT activity decrease compared to disease group (ethanol-fed Wistar rats [3]; [6]): 24%
AP activity decrease compared to disease group (ethanol-fed Wistar rats [3]; [6]): 29%
AST activity decrease compared to disease group (ethanol-fed Wistar rats [3]; [6]): 11%
reduction of ethanol effect on AST activity (ethanol-fed Wistar rats [3]; [6]): 48%
γ-GT activity decrease compared to disease group (ethanol-fed Wistar rats [3]; [6]): 33%
γ-GT activity above the reference value of healthy animals (ethanol-fed Wistar rats [3]): 12%
AST activity above the reference value of healthy animals (ethanol-fed Wistar rats [3]; lowest concentration): 6%
reduction of ethanol effect on alkaline phosphatase (AP) activity (ethanol-fed Wistar rats [3]; on average (UDCA 40 mg/kg)): 96%

OCCCCCCCCCCCCn1ccnc1 [I-ol]
liver morphology (histopathology, in words) (ethanol-fed Wistar rats [1]): almost complete restoration of the physiological liver morphology
GR activity reduction compared to disease group (ethanol-fed Wistar rats [2]): 10%
reduction of ethanol effect on hydrogen peroxide (ethanol-fed Wistar rats [2]): completely reduced
increase of ethanol effect on GR activity (ethanol-fed Wistar rats [2]): 41%
GSH elevation compared to disease group (ethanol-fed Wistar rats [2]): 62%
hydrogen peroxide decrease compared to disease group (ethanol-fed Wistar rats [2]; [5]): 75%
reduction of ethanol effect on reduced glutathione (GSH) (ethanol-fed Wistar rats [2]; [5]): 36%
SRA decrease compared to disease group (ethanol-fed Wistar rats [2]): 36%
GPx activity elevation compared to disease group (ethanol-fed Wistar rats [2]; average over doses): 17%
reduction of ethanol effect on glutathione reductase (GR) activity (ethanol-fed Wistar rats [2]): 41%
TBARS decrease compared to disease group (ethanol-fed Wistar rats [2]; highest concentration): 50%
TBARS level below the reference values of healthy animals (ethanol-fed Wistar rats [2]; highest concentration): 11%
GPx activity below the reference value in healthy animals (ethanol-fed Wistar rats [2]): 8%
reduction of ethanol effect on glutathione peroxidase (GPx) activity (ethanol-fed Wistar rats [2]): completely reduced
tolerability in acute toxicity study (in words) [4]: best tolerated compound
reduction of ethanol effect on γ-GT activity (ethanol-fed Wistar rats [3]): 68%
reduction of ethanol effect on ALT activity (ethanol-fed Wistar rats [3]): 70%
ALT activity decrease compared to disease group (ethanol-fed Wistar rats [3]; [6]): 29%
AST activity decrease compared to disease group (ethanol-fed Wistar rats [3]; [6]): 14%
reduction of ethanol effect on AST activity (ethanol-fed Wistar rats [3]; [6]): 60%
γ-GT activity decrease compared to disease group (ethanol-fed Wistar rats [3]; [6]): 37%
γ-GT activity above the reference value of healthy animals (ethanol-fed Wistar rats [3]): 28%
ALT activity (in words) (ethanol-fed Wistar rats [3]; lowest concentration): complete restoration of the basic activity
AP activity decrease compared to disease group (ethanol-fed Wistar rats [3]; lowest concentration): 27%
AST activity above the reference value of healthy animals (ethanol-fed Wistar rats [3]; lowest concentration): 6%
reduction of ethanol effect on alkaline phosphatase (AP) activity (ethanol-fed Wistar rats [3]; lowest concentration): 87%
